# US20250127905A1, “GLUTARIMIDE COMPOUND AND USE THEREOF” (MEDSHINE DISCOVERY INC., priority 2021, published 2025)
# Counter-ions that a name gives are not always drawn.
# System: sodium urate-induced acute gouty arthritis
# Test: Sodium urate-induced acute gouty arthritis in rats
# Type: in vivo, SD rats
# Method: It is to evaluate the preventive and therapeutic effect of compounds on sodium urate-induced acute gouty arthritis in rats. Animals: 5-week-old male SD rats; source: Zhejiang Vital River Laboratory Animal Technology Co., Ltd. Experimental grouping: After 3 days of acclimatization, all animals were measured for basal hindfoot volume, arthritis index score, and bilateral hindfoot pain threshold. 50 animals were selected and divided equally into 5 groups with 10 animals each based on body weight, hindfoot volume, arthritis index, and bilateral hindfoot pain threshold. The day of initiation of administration was recorded as D-1, and intragastric administration was performed twice a day for 6 consecutive days (D-1 to […]). 1 hour after the first administration at D0 (1 day after administration), except for the blank control group, the other rats were anesthetized with isoflurane, and 50 μL (50 mg/mL) of sodium urate solution was injected into the joint cavity for modeling at the lateral posterior side of the right ankle joint, which was used as a puncture point. Joint swelling would peak after 8 to 12 hours (lasting about 72 hours). Foot volumes of the animals were measured and arthritis index (AI) scoring was performed before and 2, 5, 8, 11, 24, 48, 72, and 96 hours after the onset of inflammation; pain thresholds were measured using a bipedal balance pain tester before and 2, 24, 48, 72, and 96 hours after the onset of inflammation. Photographs of critical swelling were taken at the peak of joint swelling (8 to 12 hours) in each group of animals and retained. Foot volume measurement: Before measurement, a line was drawn at the ankle joint of a rat with a marker to mark the position, and the instrument was added with clean water and zeroed to be ready for measurement. The hind limbs of the rat were placed in the water so that the marked line at the ankle joint was on the surface of the liquid, at which time the foot pedal was pressed to read the foot volume of the rat. At the end of the measurement, the foot pedal was pressed again for zeroing to be ready for the measurement of the next rat. Arthritis index (AI): The foot volume was measured while the swelling of the modeled foot was scored. Arthritis index scoring criteria: [table] Experimental data were expressed as Mean±SD; data were statistically analyzed using IBM SPSS Statistics 21, and p<0.05 was considered a significant difference between the two groups.
# [1] = 30 mg/kg intragastric twice a day, time 0 h
# [2] = 30 mg/kg intragastric twice a day, time 2 h
# [3] = 30 mg/kg intragastric twice a day, time 5 h
# [4] = 30 mg/kg intragastric twice a day, time 8 h
# [5] = 30 mg/kg intragastric twice a day, time 11 h
# [6] = 30 mg/kg intragastric twice a day, time 24 h
# [7] = 30 mg/kg intragastric twice a day, time 48 h
# [8] = 30 mg/kg intragastric twice a day, time 72 h
# [9] = 30 mg/kg intragastric twice a day, time 96 h
# [10] = 100 mg/kg intragastric twice a day, time 0 h
# [11] = 100 mg/kg intragastric twice a day, time 2 h
# [12] = 100 mg/kg intragastric twice a day, time 5 h
# [13] = 100 mg/kg intragastric twice a day, time 8 h
# [14] = 100 mg/kg intragastric twice a day, time 11 h
# [15] = 100 mg/kg intragastric twice a day, time 24 h
# [16] = 100 mg/kg intragastric twice a day, time 48 h
# [17] = 100 mg/kg intragastric twice a day, time 72 h
# [18] = 100 mg/kg intragastric twice a day, time 96 h
# [19] = 200 mg/kg intragastric twice a day, time 0 h
# [20] = 200 mg/kg intragastric twice a day, time 2 h
# [21] = 200 mg/kg intragastric twice a day, time 5 h
# [22] = 200 mg/kg intragastric twice a day, time 8 h
# [23] = 200 mg/kg intragastric twice a day, time 11 h
# [24] = 200 mg/kg intragastric twice a day, time 24 h
# [25] = 200 mg/kg intragastric twice a day, time 48 h
# [26] = 200 mg/kg intragastric twice a day, time 72 h
# [27] = 200 mg/kg intragastric twice a day, time 96 h
structure (smiles),measurement,setting,value
O=C1CCC(c2noc3c(NC(=O)CN4CCN(C[C@H]5CC[C@H](n6cc(NC(=O)c7cnn8ccc(N9C[C@H]%10C[C@@H]9CO%10)nc78)c(C(F)F)n6)CC5)CC4)cccc23)C(=O)N1 (stereo partly drawn) [Hydrochloride of WX015],Arthritis index,[1],0
same,Foot volume,[1],3.63 mL
same,Hindfoot weight-bearing difference,[1],0.69 g
same,Arthritis index,[2],1
same,Foot volume,[2],3.88 mL
same,Hindfoot weight-bearing difference,[2],19.09 g
same,Arthritis index,[3],1
same,Foot volume,[3],3.9 mL
same,Arthritis index,[4],1
same,Foot volume,[4],3.9 mL
same,Arthritis index,[5],1
same,Foot volume,[5],3.92 mL
same,Arthritis index,[6],0.9
same,Foot volume,[6],3.9 mL
same,Hindfoot weight-bearing difference,[6],13.22 g
same,Arthritis index,[7],0.5
same,Foot volume,[7],3.91 mL
same,Hindfoot weight-bearing difference,[7],6.6 g
same,Arthritis index,[8],0.3
same,Foot volume,[8],3.94 mL
same,Hindfoot weight-bearing difference,[8],4.3 g
same,Arthritis index,[9],0.1
same,Foot volume,[9],3.96 mL
same,Hindfoot weight-bearing difference,[9],2.1 g
same,Arthritis index,[10],0
same,Foot volume,[10],3.63 mL
same,Hindfoot weight-bearing difference,[10],0.12 g
same,Arthritis index,[11],1
same,Foot volume,[11],3.85 mL
same,Hindfoot weight-bearing difference,[11],16.38 g
same,Arthritis index,[12],1
same,Foot volume,[12],3.88 mL
same,Arthritis index,[13],1
same,Foot volume,[13],3.9 mL
same,Arthritis index,[14],1
same,Foot volume,[14],3.91 mL
same,Arthritis index,[15],0.6
same,Foot volume,[15],3.88 mL
same,Hindfoot weight-bearing difference,[15],12.2 g
same,Arthritis index,[16],0.3
same,Foot volume,[16],3.9 mL
same,Hindfoot weight-bearing difference,[16],5.72 g
same,Arthritis index,[17],0.2
same,Foot volume,[17],3.93 mL
same,Hindfoot weight-bearing difference,[17],3 g
same,Arthritis index,[18],0
same,Foot volume,[18],3.95 mL
same,Hindfoot weight-bearing difference,[18],2.01 g
same,Arthritis index,[19],0
same,Foot volume,[19],3.62 mL
same,Hindfoot weight-bearing difference,[19],-0.23 g
same,Arthritis index,[20],1
same,Foot volume,[20],3.84 mL
same,Hindfoot weight-bearing difference,[20],14.81 g
same,Arthritis index,[21],1
same,Foot volume,[21],3.88 mL
same,Arthritis index,[22],1
same,Foot volume,[22],3.89 mL
same,Arthritis index,[23],1
same,Foot volume,[23],3.88 mL
same,Arthritis index,[24],0.5
same,Foot volume,[24],3.87 mL
same,Hindfoot weight-bearing difference,[24],11.32 g
same,Arthritis index,[25],0.2
same,Foot volume,[25],3.89 mL
same,Hindfoot weight-bearing difference,[25],3.91 g
same,Arthritis index,[26],0
same,Foot volume,[26],3.91 mL
same,Hindfoot weight-bearing difference,[26],2.1 g
same,Arthritis index,[27],0
same,Foot volume,[27],3.93 mL
same,Hindfoot weight-bearing difference,[27],1.94 g
